Assay results reported in patent US20030087906A1, “NITROGEN SUBSTITUTED BIARYL PURINE DERIVATIVES AS POTENT ANTIPROLIFERATIVE AGENTS” (priority 2001, published 2003).

Experiments:
Assay in all cases: NCI 60-cell line growth inhibition assay
Assay type in all cases: cell-based
[1] = system: BT-549; details: Homo sapiens
[2] = system: HS 578T; details: Homo sapiens; Breast, HS 578T
[3] = system: MDA-MB-231/ATCC; details: Homo sapiens
[4] = system: MDA-MB-435; details: Homo sapiens
[5] = system: NCI/ADR-RES; details: Homo sapiens
[6] = system: SF-295; details: Homo sapiens
[7] = system: SF-539; details: Homo sapiens
[8] = system: SNB-19; details: Homo sapiens
[9] = system: SNB-75; details: Homo sapiens; CNS, SNB-75
[10] = system: COLO 205; details: Homo sapiens
[11] = system: HCC-2998; details: Homo sapiens
[12] = system: HCT-116; details: Homo sapiens
[13] = system: HCT-15; details: Homo sapiens
[14] = system: KM12; details: Homo sapiens
[15] = system: CCRF-CEM; details: Homo sapiens
[16] = system: K-562; details: Homo sapiens, K562
[17] = system: MOLT-4; details: Homo sapiens
[18] = system: M14; details: Homo sapiens
[19] = system: SK-MEL-28; details: Homo sapiens
[20] = system: SK-MEL-5; details: Homo sapiens
[21] = system: UACC-257; details: Homo sapiens
[22] = system: HOP-92; details: Homo sapiens
[23] = system: NCI-H23; details: Homo sapiens
[24] = system: NCI-H322M; details: Homo sapiens
[25] = system: NCI-H460; details: Homo sapiens
[26] = system: IGROV1; details: Homo sapiens, IGROV-1
[27] = system: OVCAR-3; details: Homo sapiens
[28] = system: OVCAR-4; details: Homo sapiens
[29] = system: OVCAR-5; details: Homo sapiens
[30] = system: SK-OV-3; details: Homo sapiens
[31] = system: PC-3; details: Homo sapiens
[32] = system: 786-0; details: Homo sapiens
[33] = system: A498; details: Homo sapiens
[34] = system: RXF 393; details: Homo sapiens
[35] = system: UO-31; details: Homo sapiens
[36] = system: HT29; details: Homo sapiens, HT-29
[37] = system: SR; details: Homo sapiens
[38] = system: LOX IMVI; details: Homo sapiens
[39] = system: SN12C; details: Homo sapiens; Renal, SN12C
[40] = system: TK-10; details: Homo sapiens; TK-10 (Renal)

## CC[C@H](CO)Nc1nc(NCc2ccc(-c3ccccc3)cc2)c2ncn(C(C)C)c2n1 [Compound 73]
[1]; Breast, BT-549
  GI50: 0.25 µM
[2]
  GI50: 0.1 µM
[3]; Breast, MDA-MB-231/ATCC
  GI50: 0.5 µM
[4]; Breast, MDA-MB-435
  GI50: 0.25 µM
[5]; Breast, NCI/ADR-RES
  GI50: 0.4 µM
[6]; CNS, SF-295
  GI50: 0.25 µM
[7]; CNS, SF-539
  GI50: 0.76 µM
[8]; CNS, SNB-19
  GI50: 0.43 µM
[9]
  GI50: 0.02 µM
[10]; Colon, COLO 205
  GI50: 0.28 µM
[11]; Colon, HCC-2998
  GI50: 0.2 µM
[12]; Colon, HCT-116
  GI50: 0.2 µM
[13]; Colon, HCT-15
  GI50: 0.18 µM
[14]; Colon, KM12
  GI50: 0.13 µM
[15]; Leukemia, CCRF-CEM
  GI50: 0.25 µM
[16]; Leukemia, K-562
  GI50: 0.16 µM
[17]; Leukemia, MOLT-4
  GI50: 0.32 µM
[18]; Melanoma, M14
  GI50: 0.03 µM
[19]; Melanoma, SK-MEL-28
  GI50: 0.45 µM
[20]; Melanoma, SK-MEL-5
  GI50: 0.25 µM
[21]; Melanoma, UACC-257
  GI50: 0.16 µM
[22]; Non-Small Cell Lung, HOP-92
  GI50: 1 µM
[23]; Non-Small Cell Lung, NCI-H23
  GI50: 0.32 µM
[24]; Non-Small Cell Lung, NCI-H322M
  GI50: 0.16 µM
[25]; Non-Small Cell Lung, NCI-H460
  GI50: 0.4 µM
[26]; Ovarian, IGROV1
  GI50: 0.32 µM
[27]; Ovarian, OVCAR-3
  GI50: 0.3 µM
[28]; Ovarian, OVCAR-4
  GI50: 0.32 µM
[29]; Ovarian, OVCAR-5
  GI50: 0.25 µM
[30]; Ovarian, SK-OV-3
  GI50: 0.95 µM
[31]; Prostate, PC-3
  GI50: 0.35 µM
[32]; Renal, 786-0
  GI50: 0.2 µM
[33]; Renal, A498
  GI50: 2.88 µM
[34]; Renal, RXF 393
  GI50: 0.09 µM
[35]; Renal, UO-31
  GI50: 0.06 µM

## CC[C@H](CO)Nc1nc(NCc2ccc(-c3ccccn3)cc2)c2ncn(C(C)C)c2n1 [Compound 17]
[1]; Breast, BT-549
  GI50: 0.4 µM
[2]
  GI50: 6.31 µM
[4]; Breast, MDA-MB-435
  GI50: 0.2 µM
[5]; Breast, NCI/ADR-RES
  GI50: 0.28 µM
[6]; CNS, SF-295
  GI50: 0.19 µM
[7]; CNS, SF-539
  GI50: 0.4 µM
[8]; CNS, SNB-19
  GI50: 0.14 µM
[9]
  GI50: 0.02 µM
[10]; Colon, COLO 205
  GI50: 0.05 µM
[11]; Colon, HCC-2998
  GI50: 0.03 µM
[12]; Colon, HCT-116
  GI50: 0.16 µM
[13]; Colon, HCT-15
  GI50: 0.04 µM
[36]; Colon, HT29
  GI50: 0.1 µM
[14]; Colon, KM12
  GI50: 0.03 µM
[15]; Leukemia, CCRF-CEM
  GI50: 0.16 µM
[16]; Leukemia, K-562
  GI50: 0.16 µM
[17]; Leukemia, MOLT-4
  GI50: 0.25 µM
[37]; Leukemia, SR
  GI50: 0.5 µM
[38]; Melanoma, LOX IMVI
  GI50: 0.32 µM
[18]; Melanoma, M14
  GI50: 0.03 µM
[19]; Melanoma, SK-MEL-28
  GI50: 0.12 µM
[20]; Melanoma, SK-MEL-5
  GI50: 0.32 µM
[21]; Melanoma, UACC-257
  GI50: 0.2 µM
[22]; Non-Small Cell Lung, HOP-92
  GI50: 1.58 µM
[23]; Non-Small Cell Lung, NCI-H23
  GI50: 0.16 µM
[24]; Non-Small Cell Lung, NCI-H322M
  GI50: > 1000 µM
[25]; Non-Small Cell Lung, NCI-H460
  GI50: 0.41 µM
[26]; Ovarian, IGROV1
  GI50: 0.2 µM
[27]; Ovarian, OVCAR-3
  GI50: 0.65 µM
[28]; Ovarian, OVCAR-4
  GI50: 0.32 µM
[29]; Ovarian, OVCAR-5
  GI50: 0.26 µM
[30]; Ovarian, SK-OV-3
  GI50: 0.4 µM
[31]; Prostate, PC-3
  GI50: 0.2 µM
[32]; Renal, 786-0
  GI50: 0.25 µM
[33]; Renal, A498
  GI50: 1.58 µM
[34]; Renal, RXF 393
  GI50: 0.02 µM
[39]
  GI50: 0.56 µM
[35]; Renal, UO-31
  GI50: 0.1 µM

## CC[C@H](CO)Nc1nc(NCc2ccc(-c3ccc(OC)cc3)cc2)c2ncn(C(C)C)c2n1 [Compound 43]
[1]; BT-549 (Breast)
  GI50: 4 µM
[3]; MDA-MB-231/ATCC (Breast)
  GI50: 3.2 µM
[4]; MDA-MB-435 (Breast)
  GI50: 2.1 µM
[5]; NCI/ADR-RES (Breast)
  GI50: 5.2 µM
[6]; SF-295 (CNS)
  GI50: 4 µM
[7]; SF-539 (CNS)
  GI50: 3.4 µM
[8]; SNB-19 (CNS)
  GI50: 5 µM
[10]; COLO 205 (Colon)
  GI50: 1.6 µM
[11]; HCC-2998 (Colon)
  GI50: 3.4 µM
[12]; HCT-116 (Colon)
  GI50: 2.1 µM
[13]; HCT-15 (Colon)
  GI50: 3.9 µM
[36]; HT29 (Colon)
  GI50: 3.6 µM
[14]; KM12 (Colon)
  GI50: 2.3 µM
[15]; CCRF-CEM (Leukemia)
  GI50: 2.8 µM
[16]; K-562 (Leukemia)
  GI50: 3.1 µM
[17]; MOLT-4 (Leukemia)
  GI50: 2 µM
[37]; SR (Leukemia)
  GI50: 2.2 µM
[38]; LOX IMVI (Melanoma)
  GI50: 3.4 µM
[18]; M14 (Melanoma)
  GI50: 2.2 µM
[19]; SK-MEL-28 (Melanoma)
  GI50: 2.3 µM
[20]; SK-MEL-5 (Melanoma)
  GI50: 2.1 µM
[21]; UACC-257 (Melanoma)
  GI50: 4.8 µM
[22]; HOP-92 (Non-Small Cell Lung)
  GI50: 2.6 µM
[23]; NCI-H23 (Non-Small Cell Lung)
  GI50: 4.3 µM
[24]; NCI-H322M (Non-Small Cell Lung)
  GI50: 3.5 µM
[25]; NCI-H460 (Non-Small Cell Lung)
  GI50: 3.2 µM
[26]; IGROV1 (Ovarian)
  GI50: 3.4 µM
[27]; OVCAR-3 (Ovarian)
  GI50: 9.3 µM
[28]; OVCAR-4 (Ovarian)
  GI50: 8.9 µM
[29]; OVCAR-5 (Ovarian)
  GI50: 3.6 µM
[30]; SK-OV-3 (Ovarian)
  GI50: 72.4 µM
[31]; PC-3 (Prostate)
  GI50: 38.9 µM
[32]; 786-0 (Renal)
  GI50: 3.1 µM
[33]; A498 (Renal)
  GI50: 3 µM
[34]; RXF 393 (Renal)
  GI50: 1.9 µM
[40]
  GI50: 3.2 µM
[35]; UO-31 (Renal)
  GI50: 2.8 µM
